Experimental data from patent publication US11376235B2, “Inhibitor of inflammasome activation” (KRACIE HOLDINGS, LTD., priority 2016, dated 2022).

What was measured:
NLRP3 inflammasome [1] = assay: Inflammasome activation by MSU stimulation in PMA-differentiated, LPS-treated THP1-Null cells (Test 3); format: cell-based, human; conditions: MSU 100 μg/mL stimulation, 3 h, vs Control, ELISA
Protocol: (§1) THP1-Null cells (Invivogen) or THP-1 cells (JCRB Cell Bank), which are NLRP3 inflammasome reporter cell lines derived from human monocytic cells, were cultured in a RPMI medium containing 10% FBS and 4.5% glucose (hereinafter referred to as a THP1 culture medium, SIGMA). The cells were treated with 500 nM PMA (SIGMA) for 3 hours to differentiate the cells into macrophages, and the cells were washed with PBS twice and then used for the following experiment.
(§2) The THP1-Null cells or the THP-1 cells after the induction of differentiation were suspended in the THP1 culture medium at 1.0×10^6 cells/mL and seeded in a 96-well microplate at 180 μL per well (1.8×10^5 cells/well). […] The IL-1β concentrations of the culture supernatants were measured using IL-1β reporter cell line HEKBlue (trademark) IL-18/IL-1β cells (Invivogen) or the ELISA method. The caspase-1 concentrations of the culture supernatants were also measured by the ELISA method.
(§3) HEK Blue (trademark) IL-18/IL-1β cells were used for measuring the IL-1β concentrations of the medium supernatants collected after the ATP treatment. […] The absorbance of each well at 655 nm was measured using a microplate reader, and the IL-1β concentration was measured. […]
(§4) Caspase-1 was measured following the TDS of Quantikine (registered trademark) ELISA Human Caspase-1/ICE (R&D systems (trademark)). […]

NLRP3 inflammasome [2] = assay: Inflammasome activation by palmitic acid stimulation in PMA-differentiated, LPS-treated THP1-Null cells (Test 2); format: cell-based, human; conditions: palmitic acid 500 μM stimulation, 12 h, arctigenin 500 nM pretreatment, vs Control, Student's t-test, ELISA
Protocol: as §1, §2, §3, §4

[3] = stated as a fact, no test described; cited from earlier work
NLRP3 inflammasome [4] = assay: Inflammasome activation by ATP stimulation in PMA-differentiated, LPS-treated THP1-Null cells (Test 1); format: cell-based, human; conditions: ATP 5 mM stimulation, arctigenin at concentrations of 10 μM and higher, 1 h pretreatment, vs Control without arctigenin, Dunnett's test
Protocol: as §1, §2, §3, §4

AIM2 inflammasome = assay: Inflammasome activation by Poly(dA:dT) stimulation in PMA-differentiated, LPS-treated THP-1 cells (Test 4); format: cell-based, human; conditions: Poly(dA:dT)/LyoVec 5 μg/mL stimulation, 8 h, vs Control, Student's t-test, ELISA
Protocol: as §1, §2, §3, §4

## COc1cc(C[C@H]2C(=O)OC[C@@H]2Cc2ccc(OC)c(OC)c2)ccc1O [arctigenin]
NLRP3 inflammasome [1]; arctigenin at concentrations of 10 μM and higher, Dunnett's test, FIG. 5
  released IL-1β amount: decreased with significance
NLRP3 inflammasome [1]; arctigenin pretreatment, FIG. 6
  caspase-1 amount: decreased concentration-dependently
NLRP3 inflammasome [2]; FIG. 3
  released IL-1β amount: decreased with significance
NLRP3 inflammasome [2]; FIG. 4
  caspase-1 amount: decreased with significance
[3]
  solubility in water: insoluble in water
NLRP3 inflammasome [4]; ELISA, FIG. 2
  caspase-1 amount: decreased with significance
NLRP3 inflammasome [4]; HEK Blue IL-18/IL-1β reporter cells, FIG. 1
  released IL-1β amount: decreased with significance
AIM2 inflammasome; arctigenin 250 nM pretreatment, FIG. 8
  caspase-1 amount: decreased with significance
AIM2 inflammasome; arctigenin 500 nM pretreatment, FIG. 7
  released IL-1β amount: decreased with significance
